Values quoted from earlier work as cited in article PMC4846294 (Bioorganic & medicinal chemistry, 2016).
Marks after values point to notes of the source that are not given here.

Tests used:
[1] = tested on: SK-OV-3 (ovarian); details: read-out: GI50 SRB Assay SK-OV-3; cited from earlier work
[2] = tested on: NCI-H460 (lung); details: read-out: GI50 SRB Assay NCI-H460; cited from earlier work
[3] = tested on: DU-145 (prostate); details: read-out: GI50 SRB Assay DU-145; cited from earlier work
[4] = tested on: purified bovine brain tubulin; details: read-out: Inhibition of Tubulin Polymerization IC50; cited from earlier work
[5] = tested on: tubulin; details: inhibitor 5 μM; cited from earlier work

In the case of `COc1ccc(/C=C\c2cc(OC)c(OC)c(OC)c2)c(O)c1O` [CA1, combretastatin A-1], the GI50 [1] is listed as 0.0384 ± 0.0242 µM, the GI50 [2] is listed as 0.0153 ± 0.0158 µM and the GI50 [3] is listed as 0.0326 ± 0.0173 µM. The IC50 [4] was 1.9 µM and the “Inhibition of Colchicine Binding (% Inhibition±SD)” value [5] was 99.6±0.7^b %.
